Measurements: patent US20180092908A1, “SMALL MOLECULE OXIDIZERS OF PDI AND THEIR USE” (THE TRUSTEES OF COLUMBIA UNIVERSITY IN THE CITY OF NEW YORK, priority 2015, published 2018)
Values after ≈ are worked out from the molar mass of the structure shown. Like-named read-outs stand apart in the source and are kept apart here.

What was measured:
PC12 mHTT^Q103 cells = assay: Rescue of PC12 cells from mHTT^Q103 induced cell death (Alamar blue viability); assay type: cell-based; details: Table 5; for EC50: Rattus norvegicus, PC-12, read-out: Cell Viability Assay EC50
Excerpt: PC12 mHTT^Q103 cells were a gift from Erik S. Schweitzer (UCLA School of Medicine, Los Angeles, Calif.). These cells are stably transfected with the first exon of human HTT gene containing the pathogenic 103 CAG/CAA repeat expansion, under the control of the ecdysteroid promoter (Aiken et al., 2004). The plasmid also contains a Bombyx mori ecdysone receptor gene fused at N-terminal with VP16 transactivation domain (Suhr et al., 1998; Vilaboa et al., 2011). Addition of the ecdysone analog, tebufenozide, to the cell culture medium is used to initiate the transcription of mutant HTT (Aiken et al., 2004).
PC12 mHTT^Q103 cells were cultured in DMEM containing 4.5 g/I glucose, 25 mM HEPES, sodium pyruvate, and no L-glutamine (Mediatech, cat. no. 15-018-CV), supplemented with 10% (v/v) Cosmic Calf serum, 2 mM L-glutamine, 100 units/mL of penicillin-streptomycin, and 0.5 mg/ml active geneticin. Cells were grown at 37° C., 9.5% CO2, and the medium was replaced with fresh medium every 2-3 days. To induce mHTT^Q103 expression for experiments, tebufenozide, a gift from Lynne Moore and Fred H. Gage (The Salk Institute for Biological Studies, La Jolla, Calif.), was added to the medium at 200 nM final concentration from 1 mM stock in 85% ethanol.
LOC mother plates with compounds at 4 mg/ml were thawed and spun down (1000 rpm, 20° C., 1 min) prior to use. Biomek FX (Beckman Coulter) robotic liquid dispenser was used to handle all liquid transferring and mixing. […] Two fold serial dilution was performed across five daughter plates by transferring 50 μl of compounds (at […]) from the D1 plate into 50 μl of PC12 medium in daughter plate D2, mixing, and then repeating the process for the remaining three plates. Daughter plate D1 with compounds at […], daughter plate D3 with compounds at 20 μl/ml and daughter plate D5 with compounds at 5 μl/ml were then used for the screen. Assay plates were set up by seeding tebufenozide-induced PC12 mHTT^Q103 cells into 384-well black, clear-bottom plates (Corning Inc. cat. no. 3712) at a density of 7,500 cells per well in 57 μl PC12 medium without geneticin. Three microliters of compound from the daughter plates (D1, D3, and D5) were added to the assay plates for a final compound concentration of 4 μl/ml, 1 μl/ml, and 0.25 μl/ml. Four wells containing uninduced PC12 mHTT^Q103 cells and four wells containing medium only, were also included on each plate as controls. The assay plates were incubated at 37° C., 9.5% CO2 for 48 hours. Twenty microliters of 40% Alamar blue (Life Technologies cat. no. DAL1100) solution in PC12 medium was added to each well (1:10 final dilution) and the plates were incubated for an additional 12-24 hours at 37° C., 9.5% CO2. Alamar blue fluorescence was read on a fluorescence plate reader (PerkinElmer Victor3) with 530 nm excitation filter and 590 nm emission filter. Each compound concentration was tested in triplicate.
The follow-up testing of primary screen hits was performed in a similar way. Fresh powder stocks of primary hits were re-ordered from vendors, dissolved in DMSO and tested in a two-fold serial dilution across 10 wells in both tebufenozide-induced and uninduced PC12 mHTT^Q103 cells. Dose-response curves were plotted as mean±SD and fit to either four-parameter sigmoidal (for uninduced cells) or bell-shaped (induced) function using Prism (GraphPad Software).
A cascade of two assays was used, involving both a phenotypic high-throughput screening (HTS) assay and an in vitro PDI reductase assay, to identify neuroprotective PDI-inhibiting compounds. […] Alamar blue was used as a fluorescent readout for viability after 48 hours of compound treatment and mHTT^Q103 induction. […] All the candidate hit compounds were re-tested in a two-fold dilution series.

[1] = molecular target: T1, human catalytic PDI A1 a domain (PDIa) (Homo sapiens, UniProt P07237); assay: Isothermal titration calorimetry (ITC) binding to PDIa; details: PDIa
T1 construct: made in house; host or cells: Escherichia coli BL21-Gold (DE3)
T1 sequence (P07237 with tags, fused parts or gaps): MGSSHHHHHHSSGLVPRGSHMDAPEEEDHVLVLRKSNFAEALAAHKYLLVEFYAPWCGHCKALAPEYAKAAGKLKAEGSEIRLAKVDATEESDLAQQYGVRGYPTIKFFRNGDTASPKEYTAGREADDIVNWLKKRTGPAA
Method: All ITC experiments were carried out at 25° C. on MicoCal Auto-ITC200 system (GE Healthcare). Reduced PDIa was dialyzed into ITC buffer (20 mM sodium phosphate buffer pH 7.8) and loaded into a sample cell at 40 μM concentration. The compound solution was loaded into a syringe at 400 μM in the same ITC buffer with a final DMSO concentration at 0.4% (v/v). ITC titration experiments were carried out at 25° C. with 19 injections, 2 μl per injection, and 180 seconds between each injection. The reference cell power was set to 5 μcal/sec. A control experiment was performed for each compound, where each compound was titrated into buffer to account for heat released due to dilution. This background was subtracted from test data before a final dissociation constant was obtained. Data were analyzed using a one-site binding model in Origin 7.1 software. […] Gibbs free energy, ΔG, was calculated from equation ΔG=ΔH−TΔS. All other parameters, Ka, n, ΔH, ΔS, were determined directly from the titration data.
For ITC experiments with 16F16 pre-treatment, 40 μM PDIa (after dialysis into ITC buffer) was treated with 200 μM 16F16 for 12-15 hours at 4° C. Next day the whole solution was loaded into the sample cell. LOC14 at 400 μM in ITC buffer was loaded into syringe and titrated into PDIa+16F16 loaded cell. For control experiments, ITC buffer with 200 μM 16F16 was used in the cell, while 400 μM LOC14 in ITC buffer was used in the syringe.
The binding mode of LOC14 to PDIa was next investigated using isothermal titration calorimetry (ITC). ITC measures the heat released or absorbed during a biomolecular interaction. It is a direct analytical method for determining the binding and thermodynamic parameters, such as reaction stoichiometry (n), binding constants (Ka and Kd), enthalpy (ΔH), entropy (ΔS), and free energy (ΔG) of an interaction.

[2] = molecular target: T2, recombinant catalytic a domain of human PDI A1 (PDIa) (Homo sapiens, UniProt P07237); assay: Insulin aggregation assay (PDIa reductase activity); assay type: biochemical; details: Table 5
T2 construct: made in house; host or cells: Escherichia coli BL21-Gold (DE3)
T2 sequence (P07237 with tags, fused parts or gaps): as above
Excerpt: In this insulin aggregation assay (Xu et al., 2012; Jasuja et al., 2012; Khan et al., 2011; Smith et al., 2004), PDIa reduced the two disulfide bonds between the α- and β-chains of insulin, causing the β-chain to aggregate and precipitate, resulting in an increase in absorbance at 650 nm.
To investigate the mode of binding further and to determine whether the binding was reversible or irreversible, the recovery of enzymatic activity of PDIa after dilution of pre-formed concentrated PDIa-LOC14 complexes was analyzed. LOC14 (750 μM) was incubated with a concentrated solution of PDIa (500 μM). The mixture was then diluted 100-fold and PDI's enzymatic activity was measured in the insulin reduction assay. As a control, the same procedure was also performed on the sample containing an irreversible inhibitor, 16F16 (16F16 at 750 μM and PDIa at 500 μM). […] This illustrated that unlike 16F16, LOC14 binding to PDIa is reversible.

Solubility = details: DMSO, Table 5
physchem = details: organic solvent or mixture
[3] = Table 5, read-out: ITC Assay KD

Compound | Kd ([1]; Table 4, read-out: ITC KD) | Kd [1, 3] | Insulin Assay (either active or inactive) [2] | Solubility in DMSO (Solubility) | ITC Assay KD ([1]; Table 5) | solubility (physchem; DMSO) | EC50 (PC12 mHTT^Q103 cells) | solubility (physchem) | Cell Viability Assay EC50 (PC12 mHTT^Q103 cells)
CN1CCN(Cn2sc3ccccc3c2=O)CC1 [LC-2] | 134 nM | 91.7 nM | Active | 100 mM in DMSO |  |  | 415 nM |  | 
O=c1c2ccccc2sn1CN1CCC(O)CC1 [LC-7] | 216 nM | 216 nM | Active | 100 mM in DMSO |  |  | 441 nM |  | 
CC(C)(C)OC(=O)N1CCN(Cn2sc3ccccc3c2=O)CC1 [LC-10] | 123 nM | 123 nM | Active | 100 mM in DMSO |  |  | 581 nM |  | 
O=C(Nc1ccccc1)c1ccccc1S [LC-19] |  |  | not active |  | KD = N/A irreversible or not active |  |  | 50 mM (≈ 11500 µg/mL) | 
Cn1sccc1=O [LC-35] |  |  | Active |  | KD = N/A irreversible or not active |  |  |  | Not Active
O=c1[nH]sc2c(F)cccc12 [LC-40] |  |  | Active |  | KD = N/A irreversible or not active |  | 9320 nM |  | 
NC(=O)c1cccc(F)c1SSc1c(F)cccc1C(N)=O [LC-44] |  |  | Active |  | KD = N/A irreversible or not active |  | 7070 nM |  | 
Cc1cc(C)c2c(=O)ssc2n1 [LC-50] |  |  | Active | 100 mM in DMSO |  |  | 5180 nM |  | 
Cc1nc2s[nH]c(=O)c2c(C)c1C [LC-51] |  |  | Active |  |  | 10 mM (≈ 1940 µg/mL) | 2200 nM |  | 
Cc1nc2sn(CN3CCN(C(=O)C4CC4)CC3)c(=O)c2c(C)c1C [LC-52] |  |  | Active |  |  | 10 mM (≈ 3600 µg/mL) | 3570 nM |  | 
Cc1nnc2sn(C(C)N3CCC(C(=O)C4CC4)CC3)c(=O)c2c1C (centres unmarked) [LC-59] |  |  | Active | 100 mM in DMSO |  |  | 10600 nM |  | 

The next lines start with results.

Kd ([1]; Table 4, read-out: ITC KD) | Kd [1, 3] | Insulin Assay (either active or inactive) [2] | Solubility in DMSO (Solubility) | ITC Assay KD ([1]; Table 5) | solubility (physchem; DMSO) | Compound | EC50 (PC12 mHTT^Q103 cells) | solubility (physchem) | Cell Viability Assay EC50 (PC12 mHTT^Q103 cells)
107 nM | 107 nM | Active | 100 mM in DMSO |  |  | O=c1c2ccccc2sn1CN1CCCCC1 [LC-1] | 459 nM |  | 
91.7 nM | 91.7 nM | Active | 100 mM in DMSO |  |  | O=c1c2ccccc2sn1CN1CCSCC1 [LC-3] | 463 nM |  | 
265 nM | 265 nM | Active | 100 mM in DMSO |  |  | O=c1c2ccccc2sn1CN1CCC(CO)CC1 [LC-4] | 343 nM |  | 
140 nM | 140 nM | Active | 100 mM in DMSO |  |  | O=c1c2ccccc2sn1CN1CCN(c2ncccn2)CC1 [LC-12] | 416 nM |  | 
190 nM | 190 nM | Active | 100 mM in DMSO |  |  | CC(=O)c1ccc(N2CCN(Cn3sc4ccccc4c3=O)CC2)cc1 [LC-13] | 514 nM |  | 
 | 160 nM | Active | 100 mM in DMSO |  |  | O=c1c2ccccc2sn1Cn1sc2ccccc2c1=O [LC-17, 2,2′-methylenebis(benzo[d]isothiazol-3(2H)-one)] | 229 nM |  | 
 |  | not active |  | KD = N/A irreversible or not active |  | Cc1ccc(NC(=O)c2ccccc2S)c(Br)c1 [LC-34] | 3770 nM |  | 
 | 25.3 nM | not active |  |  |  | Cc1ccc(-n2sc3ccccc3c2=O)c(Br)c1 [LC-36] | 1590 nM |  | 
 |  | not active |  | KD = N/A irreversible or not active |  | O=c1c2ccccc2sn1-c1ccc(Oc2ccccc2)cc1 [LC-37] | 1680 nM |  | 
 |  | Active |  | KD = N/A irreversible or not active |  | O=C(C1CC1)N1CCN(Cn2sc3c(F)cccc3c2=O)CC1 [LC-43] | 7410 nM |  | 
